The values that follow come from US20240287037A1, “CYCLOALKYL COMPOUNDS AND PHARMACEUTICAL COMPOSITIONS THAT MODULATE IKZF2” (Plexium, Inc., priority 2021, published 2024).

The term pEC50 denotes the EC50 on a negative log10 scale, so that one unit is a factor of ten. Broadly, the DC50 is the midpoint of the concentration-degradation curve. Low values mean degradation at low concentration, high ones degradation only at high concentration.

Assay [1] deals with human E3 ligase component cereblon (CRBN) (Homo sapiens (Human), UniProt Q96SW2). The experiment in a line: Cereblon (CRBN) target engagement, NanoBRET TE Intracellular E3 Ligase Assay in transfected HEK-293T cells. Here is the method: HEK-293T cells were harvested ca. 75% confluent with trypsin and plated (500,000 cells/well) in a 6-well tissue culture plate in 2 mL of Dulbecco's Modified Eagle Medium (DMEM)^+10% Fetal Bovine Serum (FBS) and incubated overnight at 37° C.
human E3 ligase component cereblon (CRBN), sequence (Q96SW2 whole entry, the tested form may be a part): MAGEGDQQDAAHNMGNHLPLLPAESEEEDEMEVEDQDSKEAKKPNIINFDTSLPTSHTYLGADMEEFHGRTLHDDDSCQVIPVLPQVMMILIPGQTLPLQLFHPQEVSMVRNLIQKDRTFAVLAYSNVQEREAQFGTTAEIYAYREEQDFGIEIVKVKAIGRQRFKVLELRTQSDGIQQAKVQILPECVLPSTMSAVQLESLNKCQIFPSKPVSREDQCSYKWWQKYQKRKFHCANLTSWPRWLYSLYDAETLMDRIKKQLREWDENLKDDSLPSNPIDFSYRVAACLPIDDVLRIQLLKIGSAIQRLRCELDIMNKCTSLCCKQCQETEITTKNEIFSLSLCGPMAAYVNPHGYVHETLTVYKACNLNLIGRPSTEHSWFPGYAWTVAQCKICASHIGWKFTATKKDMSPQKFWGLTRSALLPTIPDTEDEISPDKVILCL
human E3 ligase component cereblon (CRBN), sequence (Q16531 whole entry partner, the tested form may be a part): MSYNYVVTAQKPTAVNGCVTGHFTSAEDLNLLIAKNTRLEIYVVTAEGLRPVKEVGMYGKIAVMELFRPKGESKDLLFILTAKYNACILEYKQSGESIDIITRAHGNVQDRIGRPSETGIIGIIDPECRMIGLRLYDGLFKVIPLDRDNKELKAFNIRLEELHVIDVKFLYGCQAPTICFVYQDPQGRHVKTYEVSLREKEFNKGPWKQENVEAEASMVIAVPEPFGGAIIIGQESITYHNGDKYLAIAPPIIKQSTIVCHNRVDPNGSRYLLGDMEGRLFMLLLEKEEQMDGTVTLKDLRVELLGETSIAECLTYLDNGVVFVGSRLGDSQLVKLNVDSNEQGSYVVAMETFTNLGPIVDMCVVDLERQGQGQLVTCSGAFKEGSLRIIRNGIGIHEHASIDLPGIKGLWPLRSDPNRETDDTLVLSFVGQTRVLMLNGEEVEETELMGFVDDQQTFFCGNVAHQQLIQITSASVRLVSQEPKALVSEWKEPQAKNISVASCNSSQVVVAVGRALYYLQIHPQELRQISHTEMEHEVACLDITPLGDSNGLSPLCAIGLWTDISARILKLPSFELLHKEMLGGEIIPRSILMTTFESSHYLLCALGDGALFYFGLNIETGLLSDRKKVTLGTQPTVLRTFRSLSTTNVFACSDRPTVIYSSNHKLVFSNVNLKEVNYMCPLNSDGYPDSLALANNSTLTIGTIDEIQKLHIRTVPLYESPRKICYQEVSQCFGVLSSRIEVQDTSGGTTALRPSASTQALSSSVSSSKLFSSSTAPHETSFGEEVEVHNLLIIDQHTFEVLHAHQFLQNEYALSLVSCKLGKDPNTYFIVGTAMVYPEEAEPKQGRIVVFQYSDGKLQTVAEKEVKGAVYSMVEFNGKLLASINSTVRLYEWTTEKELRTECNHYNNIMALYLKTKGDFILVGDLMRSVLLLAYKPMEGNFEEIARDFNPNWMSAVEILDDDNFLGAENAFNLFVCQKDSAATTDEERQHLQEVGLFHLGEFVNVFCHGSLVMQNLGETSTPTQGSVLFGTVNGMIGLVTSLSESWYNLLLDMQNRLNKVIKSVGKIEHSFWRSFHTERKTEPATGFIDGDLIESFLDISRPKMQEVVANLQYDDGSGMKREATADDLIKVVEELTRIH
The NanoLue-CRBN fusion vector (Nluc-CRBN; Promega) contains the coding region of human E3 ligase component cereblon (CRBN) fused to the C-terminus of the NanoLuc luciferase coding region. A mixture of 10 ng Nluc-CRBN and 990 ng DDB1 Expression Vector (Promega) was added to 125 μL Opti-Minimum Essential Medium (Opti-MEM™; Thermo Fisher) along with 2 μL P3000 reagent (Thermo Fisher) in a 1.5 mL epppendorf tube. This solution was added to Lipofectamine 3000 transfection reagent (5 μL; Thermo Fisher) in Opti-MEM (125 μL), mixed well, and incubated for 15 minutes at room temperature. The transfection mixture was added dropwise to cells and incubated overnight at 37° C., 5% CO2. Following transfection, cells were washed once with PBS, and trypsin (250 μL) was added and incubated 30-45 see to dislodge cells. Complete media (2 mL) was added to resuspend cells to form a single cell suspension. Cells were centrifuged at 320×g for 5 min at room temperature, the supernatant was removed, and the cell pellet resuspended in Opti-MEM (3 mL; wash step repeated ×2). After final resuspension in 5 mL Opti-MEM, cells were counted and resuspended at 200,000 cells/mL in Opti-MEM.
Cereblon target engagement was monitored by Bioluminescence Resonance Energy Transfer (BRET) in transfected HEK-293T cells using the NanoBRET TE Intracellular E3 Ligase Assay (Promega). Briefly, 384-well plates (white opaque plates, Corning 3574, low binding surface) were seeded with transfected HEK-293T cells (38 μl/well). 2 μL of 10 μM CRBN tracer (diluted 1:5 in Tracer Dilution Buffer) was added to each well. Plates were centrifuged at 320×g for 1 min at room temperature. […] Plates were shaken for 2 minutes on a microplate shaker to mix compounds. Plates were centrifuged at 320×g for 1 min at room temperature, and subsequently incubated for 2 hours at 37° C.
After incubation, plates were allowed to cool to room temperature for 15 minutes. 20 μL of 3X Complete NanoBRET™ Nano-Glo® Substrate plus Inhibitor Solution (Promega, 1:166 Substrate and 1:500 dilution of Extracellular NanoLuc® Inhibitor diluted in Opti-MEM) were added to each well, Plates were incubated with shaking at room temperature for 3 minutes covered with foil. Plates were read on a CLARIOstar microplate reader (BMG LabTech), measuring at 450 nm (donor emission) and 610 nm (acceptor emission). The IC50 values were determined by regression to best fit four-parameter logistic curves using GraphPad Prism.
A general note: In BRET a luciferase serves as donor, and the signal depends on an acceptor being close.

In another assay the target is GSPT1 (Homo sapiens (Human), UniProt P15170+Q96SW2). The experiment in a line: GSPT1 reporter degradation assay (HEK293 hGSPT1 HiBiT-tagged cells). The assay is classed as cell-based. To be noted: 24 hour incubation. Here is the method: HEK293_hGSPT1_HiBiT-tagged cells were generated using CRISPR-Cas12a technology. Briefly, ˜400,000 HEK293 cells were transiently co-transfected with precomplexed ribonuclear proteins (RNPs) consisting of […] of crRNA (IDT), […] of Cas12a protein (IDT), 3 μg of ssODN donor (IDT; AltRTM modifications), 78 pmol of electroporation enhancer (IDT), and 200 ng of pMaxGFP (Lonza). The transfection was performed via nucleofection (Lonza, 4D-Nucleofector X-unit) using solution P3 and program CM-130 in a (20 μL) cuvette. Five days post-nucleofection, cells were single-cell-sorted for GFP+ (transfected) cells by FACs in 96-well plates and clonally selected. Clones were screened and verified for the desired modification via targeted deep sequencing using gene-specific primers with partial Illumina adapter overhangs as previously described. In brief, clonal cell pellets were harvested, lysed, and used to generate gene-specific amplicons with partial Illumina adapters in PCR #1. Amplicons were indexed in PCR #2 and pooled with other targeted amplicons for other loci to create sequence diversity. Additionally, 10% PhiX sequencing control V3 (Illumina) was added to the pooled amplicon library prior to running the sample on a Miseq Sequencer System (Illumina) to generate paired 2×250 bp reads. Samples were demultiplexed using the index sequences, fastq files were generated, and NGS analysis was performed using CRIS.py.
GSPT1, sequence (P15170 whole entry): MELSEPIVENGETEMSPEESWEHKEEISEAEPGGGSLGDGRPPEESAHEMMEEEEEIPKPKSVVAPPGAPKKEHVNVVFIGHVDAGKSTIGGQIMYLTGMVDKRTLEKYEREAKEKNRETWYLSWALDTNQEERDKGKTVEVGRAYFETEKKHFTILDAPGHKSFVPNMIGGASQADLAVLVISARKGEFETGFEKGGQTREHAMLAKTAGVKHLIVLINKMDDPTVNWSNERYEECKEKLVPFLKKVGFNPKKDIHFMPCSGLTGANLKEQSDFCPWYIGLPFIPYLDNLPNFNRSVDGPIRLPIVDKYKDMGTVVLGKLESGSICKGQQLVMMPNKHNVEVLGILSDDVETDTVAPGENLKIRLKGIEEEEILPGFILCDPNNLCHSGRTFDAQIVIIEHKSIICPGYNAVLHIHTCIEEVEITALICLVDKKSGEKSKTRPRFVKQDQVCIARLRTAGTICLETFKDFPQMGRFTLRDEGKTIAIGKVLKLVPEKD
GSPT1, sequence (Q96SW2 whole entry): as the sequence (Q96SW2 whole entry, the tested form may be a part) above
GSPT1, sequence (Q16531 whole entry partner): as the sequence (Q16531 whole entry partner, the tested form may be a part) above
The GSTP1 degradation assay was carried out by harvesting the HEK 293T reporter cell lines and resuspending the cells in media formulated for reduced background fluorescence (FluoroBrite; Thermo Fisher). The respective cell lines were seeded at a density of 8,000 cells/well into white-opaque 384-well optical grade assay tissue culture plates (Greiner 781080-20). The cells were incubated overnight at 37° C. to allow for attachment to the assay plate. Dilutions of the compounds were prepared in DMSO from 10 mM compound stocks. […] Plates were centrifuged at 320×g for 2 minutes at room temperature, and subsequently incubated at 37° C.
After 24 hour incubation with the compounds, the plates were allowed to cool to room temperature for 10 minutes. 30 μL of HiBiT lytic buffer+1:50 HiBiT substrate Solution were added to each well. Plates were centrifuged at 320×g for 2 minutes at room temperature and then incubated with shaking at room temperature for 10 minutes covered with foil. Plates were read on a CLARIOstar microplate reader (BMG LabTech), measuring at 450 nm (donor emission) and 610 nm or 630 nm (acceptor emission). The DC50 values were determined by regression to best fit four-parameter logistic curves using GraphPad Prism.
Background: The HiBiT peptide binds its large partner to form an active luciferase.

The mark [2] stands for this setting: Table 3, 2 hours at 37° C., read-out: CRBN Binding EC50.
[3] abbreviates: second (untitled) table after Table 3, read-out: CRBN Binding EC50.

pEC50: −log10 of the molar value. Where two headings read alike, the source gives them in different places.

With `O=C1CCC(N2Cc3cc(O[C@H]4CCCC[C@@H]4N4CC(C5CCCCC5)C4)ccc3C2=O)C(=O)N1` (stereo partly drawn) [Compound 1, 3-(5-(((1S,2S)-2-(3-cyclohexylazetidin-1-yl)cyclohexyl)oxy)-1-oxoisoindolin-2-yl)piperidine-2,6-dione], the pEC50 in assay [1] (setting [2]) and in assay [1] (setting [3]) was 8.52 throughout. The DC50 at GSPT1 was > 30000 nM.
For the molecule `O=C1CCC(N2Cc3cc(O[C@H]4CCCC[C@@H]4N4CC(C5CCC(F)(F)CC5)C4)ccc3C2=O)C(=O)N1` (stereo partly drawn) [Compound 2, 3-(5-(((1S,2S)-2-(3-(4,4-difluorocyclohexyl)azetidin-1-yl)cyclohexyl)oxy)-1-oxoisoindolin-2-yl)piperidine-2,6-dione], the pEC50 in assay [1] (setting [2]) and in assay [1] (setting [3]) was 8.70 each time. On GSPT1, the DC50 was > 30000 nM.
Take `O=C1CCC(N2Cc3cc(O[C@H]4CCCC[C@@H]4N4CC(C5CC5)C4)ccc3C2=O)C(=O)N1` (stereo partly drawn) [Compound 3, 3-(5-(((1S,2S)-2-(3-cyclopropylazetidin-1-yl)cyclohexyl)oxy)-1-oxoisoindolin-2-yl)piperidine-2,6-dione]: the pEC50 in assay [1] (setting [2]) and in assay [1] (setting [3]) was 8.05 throughout. Besides, the DC50 on GSPT1 is > 30000 nM.
Regarding `O=C1CCC(N2Cc3cc(O[C@H]4CCCC[C@@H]4N4CC(C5CCC5)C4)ccc3C2=O)C(=O)N1` (stereo partly drawn) [Compound 5, 3-(5-(((1S,2S)-2-(3-cyclobutylazetidin-1-yl)cyclohexyl)oxy)-1-oxoisoindolin-2-yl)piperidine-2,6-dione], the pEC50 in assay [1] (setting [2]) and in assay [1] (setting [3]) was 8.05 in each case. For the same molecule, the DC50 at GSPT1 is > 30000 nM.
Consider `O=C1CCC(N2Cc3cc(O[C@H]4CCCC[C@@H]4N4CC(C5CCCC5)C4)ccc3C2=O)C(=O)N1` (stereo partly drawn) [Compound 6, 3-(5-(((1S,2S)-2-(3-cyclopentylazetidin-1-yl)cyclohexyl)oxy)-1-oxoisoindolin-2-yl)piperidine-2,6-dione], for which the pEC50 in assay [1] (setting [2]) and in assay [1] (setting [3]) was 8.30 in each case. In addition, the DC50 on GSPT1 was > 30000 nM.
`O=C1CCC(N2Cc3cc(O[C@H]4CCC[C@@H]4N4CC(C5CCC(F)(F)CC5)C4)ccc3C2=O)C(=O)N1` (stereo partly drawn) [Compound 13, 3-(5-(((1S,2S)-2-(3-(4,4-difluorocyclohexyl)azetidin-1-yl)cyclopentyl)oxy)-1-oxoisoindolin-2-yl)piperidine-2,6-dione]: the pEC50 in assay [1] (setting [2]) and in assay [1] (setting [3]) was 8.30 each time. Moreover, the DC50 at GSPT1 was > 30000 nM.
On to `CC(C)OC1CCC(C2CN([C@H]3CCCC[C@@H]3Oc3ccc4c(c3)CN(C3CCC(=O)NC3=O)C4=O)C2)CC1` (stereo partly drawn) [Compound 16, 3-(5-(((1S,2S)-2-(3-((cis)-4-isopropoxycyclohexyl)azetidin-1-yl)cyclohexyl)oxy)-1-oxoisoindolin-2-yl)piperidine-2,6-dione], for which the pEC50 in assay [1] (setting [2]) and in assay [1] (setting [3]) was 8.70 throughout. On GSPT1, the DC50 is > 30000 nM.
In the case of `CC(C)OC1CCC(C2CN([C@H]3CCCC[C@@H]3Oc3ccc4c(c3)CN(C3CCC(=O)NC3=O)C4=O)C2)CC1` (stereo partly drawn) [Compound 17, 3-(5-(((1S,2S)-2-(3-((trans)-4-isopropoxycyclohexyl)azetidin-1-yl)cyclohexyl)oxy)-1-oxoisoindolin-2-yl)piperidine-2,6-dione], the pEC50 in assay [1] (setting [2]) and in assay [1] (setting [3]) was 9.00 in each case. Further, at GSPT1, the DC50 was > 30000 nM.
As for `O=C1CCC(N2Cc3cc(O[C@H]4CCCC[C@@H]4N4CC(C5CC(F)(F)C5)C4)ccc3C2=O)C(=O)N1` (stereo partly drawn) [Compound 18, 3-(5-(((1S,2S)-2-(3-(3,3-difluorocyclobutyl)azetidin-1-yl)cyclohexyl)oxy)-1-oxoisoindolin-2-yl)piperidine-2,6-dione], the pEC50 in assay [1] (setting [2]) and in assay [1] (setting [3]) was 7.92 throughout. For the same molecule, the DC50 at GSPT1 is > 30000 nM.
Take `CCOC1CCC(C2CN([C@H]3CCCC[C@@H]3Oc3ccc4c(c3)CN(C3CCC(=O)NC3=O)C4=O)C2)CC1` (stereo partly drawn) [Compound 19, 3-(5-(((1S,2S)-2-(3-(4-ethoxycyclohexyl)azetidin-1-yl)cyclohexyl)oxy)-1-oxoisoindolin-2-yl)piperidine-2,6-dione]: the pEC50 in assay [1] (setting [2]) and in assay [1] (setting [3]) was 9.00 throughout. Also, the DC50 at GSPT1 was > 30000 nM.
